Experiments:
UGT1A9 = target: T1, UGT1A9 (Homo sapiens, UniProt O60656); assay: enzyme inhibition in vitro; assay type: in vitro ADME
T1 sequence (O60656 26-530): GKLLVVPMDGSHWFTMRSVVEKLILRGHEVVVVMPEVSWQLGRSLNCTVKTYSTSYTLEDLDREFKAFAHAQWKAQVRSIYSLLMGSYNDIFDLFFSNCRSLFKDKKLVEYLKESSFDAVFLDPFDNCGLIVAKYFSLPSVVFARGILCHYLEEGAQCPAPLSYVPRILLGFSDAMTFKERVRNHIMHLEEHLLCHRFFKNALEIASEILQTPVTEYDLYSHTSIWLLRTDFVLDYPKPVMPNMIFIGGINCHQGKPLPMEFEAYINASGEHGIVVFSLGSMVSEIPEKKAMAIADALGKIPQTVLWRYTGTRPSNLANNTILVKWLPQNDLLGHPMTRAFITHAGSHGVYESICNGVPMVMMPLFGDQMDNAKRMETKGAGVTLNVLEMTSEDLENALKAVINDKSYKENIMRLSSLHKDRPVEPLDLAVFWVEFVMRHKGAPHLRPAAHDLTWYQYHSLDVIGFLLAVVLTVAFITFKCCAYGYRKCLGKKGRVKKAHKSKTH

lung function = assay: Example 1: percent predicted HGB corrected DLco change from baseline; assay type: in vivo, human; details: Cohort 1: 200 mg QD, mean (SD)
Description: Change From Baseline in Percent Predicted Hemoglobin (HGB) Corrected Diffusing Capacity of Lung for Carbon Monoxide (DLco) at Each Specified Time Points. DLco is a measurement of the ability of the lungs to transfer gases from the air to the blood. Change from baseline in diffusing capacity of the lung for carbon monoxide (percent predicted hemoglobin level corrected) was reported for this measure. Baseline value was defined as valid and last non-missing value obtained within 28 days prior to participant receiving first study medication. EOT visit was performed within 3 days after the participant's last dose of study drug. […] Analysis was performed on mITT population. Here, ‘number analyzed’=participants with available data for each specified category. Here, ‘O’ in the number analyzed field signifies that none of the participants were available for the analysis at the specified time points.

With CC(C)NC(=O)COc1cccc(-c2nc(Nc3ccc4[nH]ncc4c3)c3ccccc3n2)c1 [Belumosudil, 2-{3-[4-(1H-indazol-5-ylamino)-2-quinazolinyl]phenoxy}-N-(propan-2-yl) acetamide] the “inhibition of UGT1A9” value (UGT1A9) was “inhibitor”, the “Change From Baseline in Percent Predicted Hemoglobin (HGB) Corrected Diffusing Capacity of Lung for Carbon Monoxide (DLco)” value (lung function; Cycle 3, Day 1) was 4.545 (22.991) Percent Predicted HGB Corrected DLco and the “Change From Baseline in Percent Predicted Hemoglobin (HGB) Corrected Diffusing Capacity of Lung for Carbon Monoxide (DLco)” value (lung function; Cycle 5, Day 1) was 4.635 (23.989) Percent Predicted HGB Corrected DLco. For the same compound, the “Change From Baseline in Percent Predicted Hemoglobin (HGB) Corrected Diffusing Capacity of Lung for Carbon Monoxide (DLco)” value (lung function; Cycle 7, Day 1) was 1.521 (19.836) Percent Predicted HGB Corrected DLco, the “Change From Baseline in Percent Predicted Hemoglobin (HGB) Corrected Diffusing Capacity of Lung for Carbon Monoxide (DLco)” value (lung function; Cycle 9, Day 1) was −4.514 (7.401) Percent Predicted HGB Corrected DLco and the “Change From Baseline in Percent Predicted Hemoglobin (HGB) Corrected Diffusing Capacity of Lung for Carbon Monoxide (DLco)” value (lung function; Cycle 11, Day 1) was −0.625 (7.262) Percent Predicted HGB Corrected DLco. For the same compound, the “Change From Baseline in Percent Predicted Hemoglobin (HGB) Corrected Diffusing Capacity of Lung for Carbon Monoxide (DLco)” value (lung function; Cycle 12, Day 1) was 0.531 (—) Percent Predicted HGB Corrected DLco, the “Change From Baseline in Percent Predicted Hemoglobin (HGB) Corrected Diffusing Capacity of Lung for Carbon Monoxide (DLco)” value (lung function; Cycle 13, Day 1) was −5.548 (12.175) Percent Predicted HGB Corrected DLco and the “Change From Baseline in Percent Predicted Hemoglobin (HGB) Corrected Diffusing Capacity of Lung for Carbon Monoxide (DLco)” value (lung function; Cycle 14, Day 1) was 12.916 (—) Percent Predicted HGB Corrected DLco. For the same compound, the “Change From Baseline in Percent Predicted Hemoglobin (HGB) Corrected Diffusing Capacity of Lung for Carbon Monoxide (DLco)” value (lung function; Cycle 15, Day 1) was 0.228 (15.731) Percent Predicted HGB Corrected DLco, the “Change From Baseline in Percent Predicted Hemoglobin (HGB) Corrected Diffusing Capacity of Lung for Carbon Monoxide (DLco)” value (lung function; Cycle 16, Day 1) was 48.465 (—) Percent Predicted HGB Corrected DLco and the “Change From Baseline in Percent Predicted Hemoglobin (HGB) Corrected Diffusing Capacity of Lung for Carbon Monoxide (DLco)” value (lung function; Cycle 17, Day 1) was −1.018 (9.226) Percent Predicted HGB Corrected DLco. For the same compound, the “Change From Baseline in Percent Predicted Hemoglobin (HGB) Corrected Diffusing Capacity of Lung for Carbon Monoxide (DLco)” value (lung function; Cycle 19, Day 1) was −2.293 (5.763) Percent Predicted HGB Corrected DLco, the “Change From Baseline in Percent Predicted Hemoglobin (HGB) Corrected Diffusing Capacity of Lung for Carbon Monoxide (DLco)” value (lung function; Cycle 21, Day 1) was −2.778 (8.187) Percent Predicted HGB Corrected DLco and the “Change From Baseline in Percent Predicted Hemoglobin (HGB) Corrected Diffusing Capacity of Lung for Carbon Monoxide (DLco)” value (lung function; Cycle 23, Day 1) was 0.354 (1.844) Percent Predicted HGB Corrected DLco. For the same compound, the “Change From Baseline in Percent Predicted Hemoglobin (HGB) Corrected Diffusing Capacity of Lung for Carbon Monoxide (DLco)” value (lung function; Cycle 24, Day 1) was 6.945 (—) Percent Predicted HGB Corrected DLco, the “Change From Baseline in Percent Predicted Hemoglobin (HGB) Corrected Diffusing Capacity of Lung for Carbon Monoxide (DLco)” value (lung function; Cycle 25, Day 1) was −4.461 (19.865) Percent Predicted HGB Corrected DLco and the “Change From Baseline in Percent Predicted Hemoglobin (HGB) Corrected Diffusing Capacity of Lung for Carbon Monoxide (DLco)” value (lung function; Cycle 26, Day 1) was 4.715 (—) Percent Predicted HGB Corrected DLco. The “Change From Baseline in Percent Predicted Hemoglobin (HGB) Corrected Diffusing Capacity of Lung for Carbon Monoxide (DLco)” value (lung function; Cycle 27, Day 1) was −8.047 (24.788) Percent Predicted HGB Corrected DLco, the “Change From Baseline in Percent Predicted Hemoglobin (HGB) Corrected Diffusing Capacity of Lung for Carbon Monoxide (DLco)” value (lung function; Cycle 29, Day 1) was −6.701 (1.671) Percent Predicted HGB Corrected DLco and the “Change From Baseline in Percent Predicted Hemoglobin (HGB) Corrected Diffusing Capacity of Lung for Carbon Monoxide (DLco)” value (lung function; Cycle 31, Day 1) was 2.343 (20.988) Percent Predicted HGB Corrected DLco. For the same compound, the “Change From Baseline in Percent Predicted Hemoglobin (HGB) Corrected Diffusing Capacity of Lung for Carbon Monoxide (DLco)” value (lung function; Cycle 32, Day 1) was 5.586 (—) Percent Predicted HGB Corrected DLco, the “Change From Baseline in Percent Predicted Hemoglobin (HGB) Corrected Diffusing Capacity of Lung for Carbon Monoxide (DLco)” value (lung function; Cycle 33, Day 1) was 9.901 (9.954) Percent Predicted HGB Corrected DLco and the “Change From Baseline in Percent Predicted Hemoglobin (HGB) Corrected Diffusing Capacity of Lung for Carbon Monoxide (DLco)” value (lung function; Cycle 34, Day 1) was 4.863 (—) Percent Predicted HGB Corrected DLco. The “Change From Baseline in Percent Predicted Hemoglobin (HGB) Corrected Diffusing Capacity of Lung for Carbon Monoxide (DLco)” value (lung function; Cycle 35, Day 1) was 13.867 (1.309) Percent Predicted HGB Corrected DLco and the “Change From Baseline in Percent Predicted Hemoglobin (HGB) Corrected Diffusing Capacity of Lung for Carbon Monoxide (DLco)” value (lung function; Cycle 36, Day 1) was 4.166 (—) Percent Predicted HGB Corrected DLco.
